This is an account of results in paper PMC5620571, “Pharmacokinetic Analysis of an Oral Multicomponent Joint Dietary Supplement (Phycox®) in Dogs” (Pharmaceutics, 2017).

Entries after “also recorded” stand apart in the source; their conditions may differ. Where a name gives a salt, the structure may show the parent alone. Read-outs that look alike come from different tables or passages of the source.

The nature of series [1]: Single-dose oral pharmacokinetic study of one Phycox soft chew in dogs (serum, LC-MS/MS, non-compartmental analysis). It is filed as in vivo, dog (female Beagle). Conditions: for serum concentration of polyphenol (aglycone or glucuronidated metabolite): single PO Phycox soft chew (36.1 μg ±hesperetin, 0.554 μg trans-resveratrol, 2.88 μg ±naringenin), serum 0-24 h; for half-life: po, 450 mg. An excerpt: The animal research protocol used in this study was reviewed and approved by the Institutional Animal Care and Use Committee at Washington State University (protocol #04224-011, approved 21 December 2014). Four commercially available purpose-bred intact female research Beagles from an Association for Assessment and Accreditation of Laboratory Animal Care (AALAC) certified source were used for the study. All dogs were 2 years of age at the onset of the study with a weight of 9.25 ± 0.81 kg (mean ± SD; range 8.4–10.2 kg). Animals were housed in AALAC approved facilities for animal research for 80 days acclimating to their environment prior to the initiation of the study. All dogs were fed a standard canine formulation (Proactive Health™ Adult Minichunks, IAMS, Mason, OH, USA) ration twice daily and housed in a temperature and humidity controlled room; 21 °C and 30%, respectively, while under 12 h light cycle conditions. The dogs underwent daily examinations and weekly body weight assessments. All animals were also given daily enrichment activities before, during, and after the study. At study termination all animals were transferred to an unrelated study. Dogs were fasted 12 h prior to the study but provided free access to water. Each subject was administered a single Phycox® soft chew and a series of blood samples (3 mL) were collected at 0, 1, 2, 4, 6, 8, 12 and 24 h post-dose via saphenous or cephalic vein depending on the temperament of the animals. Animals were fed after 2 h post-dose. Following centrifugation of the blood samples, serum was removed and stored at −80 °C until analyzed. One hundred microliters of serum from each PK sample was placed into a microcentrifuge tube. To all samples, except 0 h, 40 μL of 0.1 μg/mL internal standard stock solution (caffeine) was added along with 1.0 mL of cold acetonitrile (−20 °C) to precipitate proteins. The samples were vortexed and centrifuged at 20,160× g for 5 min. […] The residues were reconstituted with 50 μL of starting mobile phase (0.05% aqueous formic acid), vortexed and centrifuged at 20,160× g for 5 min. The supernatants were transferred to 30 kDa centrifugal filter tubes and centrifuged for 30 min at 9000× g. The filtrate was transferred to HPLC vials and 5 μL were injected into the LC-MS/MS system. The PK serum samples were separated into two sets of microcentrifuge tubes (total and aglycone) with 100 μL of serum in each. To the total samples, 20 μL β-glucuronidase (500 U/mL in 6.8 pH phosphate buffer) was added and incubated for 2 h at 37 °C [28]. To all samples except 0 h, 20 μL of 10 μg/mL internal standard stock solution (±liquiritigenin) was added along with 1.0 mL of cold acetonitrile (−20 °C) to precipitate proteins. […] The residues were reconstituted with 50 μL of mobile phase (50% aqueous methanol with 0.1% formic acid), vortexed and centrifuged at 20,160× g for 5 min. The supernatants were transferred to 30 kDa centrifugal filter tubes and centrifuged for 30 min at 9000× g. The filtrate was transferred to HPLC vials and 5 μL were injected into the LC-MS/MS system. PK samples were analyzed using Phoenix WinNonlin software (ver. 6.3; Certara, St. Louis, MO, USA) to derive the pharmacokinetic parameters for each individual dog and expressed as mean ± SEM. A non-compartmental analysis was used to calculate the PK parameters including area under the curve (AUC0–∞), the peak serum concentration (Cmax), time to reach peak serum concentration (Tmax), the apparent volume of distribution (Vd/F), the elimination half-life (t1/2), and the apparent clearance (CL/F). The elimination rate constant (KE), was estimated by log-linear regression of the serum concentrations. The AUC0–∞ was calculated using the long-linear trapezoidal rule for data from time of dosing to the last measured concentration plus the quotient of the last measured concentration divided by KE/2.303. The concentration time points of the animals were subjected to non-compartmental modeling.

The nature of series [2]: Oral pharmacokinetics of glucosamine HCl in Beagle dogs (Adebowale et al.). In kind it is in vivo. Conditions: longer than in this study (Phycox soft chew, 450 mg). As to the method:
Two previous studies have evaluated the oral pharmacokinetics of glucosamine HCl in Beagle dogs. Adebowale et al. administered 1500–2000 mg of glucosamine HCl to eight dogs and used non-compartmental modeling to derive PK parameters. […] The serum-concentration time curve reported in Adebowale et al. was similar in shape to the curve reported in this study but the half-lives were reported to be between 1.52–2.4 h, which is […] than the half-live reported in this study. […] The method employed by the study utilized a validated HPLC method with a limit of quantification of 1.25 μg/mL and involved pre-column derivatization. The amount of glucosamine administered in the present study was 3.3 to 4.4 less than those administered in the study by Adebowale et al. but the method employed in this study was 250 times more sensitive allowing for detection of much smaller concentrations of glucosamine. Various LC-MS-MS assays are validated in the literature across various fluids and species. […] The second report of glucosamine HCl PK in dogs administered 1000 mg of glucosamine HCl to four male dogs using two commercially available chewable tablet formulations. […] The method employed by the study used a modified HPLC method with a limit of quantification of 0.05 μg/mL (10 fold higher limit of quantitation than the method presented in this study) and involved pre-column derivatization. […]

Details of series [3]: method as in PMID 12214321. Conditions: cited from earlier work.
On the set-up of series [4]: method as in PMID 26205697. Conditions: cited from earlier work.
Details of series [5]: method as in PMID 19647388. The note with it: Beagle dogs; cited from earlier work.
[6] abbreviates: female, Beagle, dog, glucosamine HCl 450 mg in one Phycox soft chew PO, fasted dogs, serum, n = 4, mean ± SEM.
Where [7] appears, read: 1000 mg glucosamine HCl, four male dogs, two commercially available chewable tablet formulations.

For the compound `COc1ccc(C2CC(=O)c3c(O)cc(O)cc3O2)cc1O` (racemic) [±hesperetin], the “serum concentration of polyphenol (aglycone or glucuronidated metabolite)” value in series [1] (dogs, LOQ 5 ng/mL) is given as “no compounds were detected at quantifiable concentrations”; in series [1] (dogs, LOQ 5 ng/mL, listed as ±Hesperetin) it was “not detected at quantifiable concentrations”.
In the case of `N[C@H]1C(O)O[C@H](CO)[C@@H](O)[C@@H]1O` (stereo partly drawn) [glucosamine, glucosamine hydrochloride], the half-life in series [1] (female, Beagle, dog, serum, glucosamine HCl 450 mg in one Phycox soft chew PO, dogs, serum, read-out: apparent t1/2) was ~35 min. Also, the half-life in series [1] (female, Beagle, dog, serum, glucosamine HCl 450 mg in one Phycox soft chew PO, fasted dogs, serum, n = 4, mean ± SEM, read-out: t1/2 (converted)) is 35 ± 2.04 min. Also, in series [1] (setting [6]), the AUC(0-inf) is 20400 ± 2340 ng·h/mL, the CL/F is 42.7 mL/min/kg, the Cmax is 9690 ± 1140 ng/mL and the Tmax came out at 120 min. In series [1] (setting [6]), this compound had a Vd/F of 2.1 ± 0.254 L/kg. In addition, the “time post-dose up to which glucosamine was detected in serum” value in series [1] (single PO Phycox soft chew, dogs, samples collected for 24 h, LOQ 5 ng/mL) was “up to 8 h”. Besides, in series [2], the “half-life of Adebowale et al. relative to the half-life of this study” value is listed as 3–5 times. Besides, the half-lives in series [3] (1500–2000 mg glucosamine HCl oral, eight Beagle dogs) was 1.52 to 2.4 h. Moreover, the detection of glucosamine result in series [3] (after 4 h post-dose, HPLC, LOQ 1.25 μg/mL) is recorded as “not able to detect”. Also, in series [4] (setting [7]), the Cmax is 1800 to 2600 ng/mL and the Tmax was 252 to 300 min. In addition, in series [4] (at 12 h post-dose, HPLC, LOQ 0.05 μg/mL), the detection of glucosamine result is on record as “not able to detect”. Further, in series [5], the “absorption of glucosamine co-administered with chitosan compared to glucosamine alone” value is listed as “increased”.
On to `Oc1ccc(/C=C/c2cc(O)cc(O)c2)cc1` [trans-resveratrol], for which the “serum concentration of polyphenol (aglycone or glucuronidated metabolite)” value in series [1] (dogs, LOQ 5 ng/mL) is reported as “not detected at quantifiable concentrations; also recorded: no compounds were detected at quantifiable concentrations”.
